Where two headings read alike, the source gives them in different places.
What was measured:
Type in all cases: biochemical
[1] = biological target: p110δ/p85α (Homo sapiens (Human), UniProt O00329); assay: PI3K δ inhibition assay (TLC lipid kinase or HTRF)
Experimental: (§1) Class I PI3-Ks can be either purchased (p110α/p85α, p110β/p85α, p110δ/p85α from Upstate, and p110γ from Sigma) or expressed as previously described (Knight et al., 2004). IC50 values are measured using either a standard TLC assay for lipid kinase activity (described below) or a high-throughput membrane capture assay. Kinase reactions are performed by preparing a reaction mixture containing kinase, inhibitor (2% DMSO final concentration), buffer (25 mM HEPES, pH 7.4, 10 mM MgCl2), and freshly sonicated phosphatidylinositol (100 μg/ml). Reactions are initiated by the addition of ATP containing 10 μCi of γ-32P-ATP to a final concentration 10 or 100 μM and allowed to proceed for 5 minutes at room temperature. For TLC analysis, reactions are then terminated by the addition of […] 1N HCl followed by 160 μl CHCl3:MeOH (1:1). The biphasic mixture is vortexed, briefly centrifuged, and the organic phase is transferred to a new tube using a gel loading pipette tip precoated with CHCl3. This extract is spotted on TLC plates and developed for 3-4 hours in a 65:35 solution of n-propanol:1M acetic acid. The TLC plates are then dried, exposed to a phosphorimager screen (Storm, Amersham), and quantitated. For each compound, kinase activity is measured at 10-12 inhibitor concentrations representing two-fold dilutions from the highest concentration tested (typically, 200 μM).
(§2) Other commercial kits or systems for assaying PI3-K activities are available. The commercially available kits or systems can be used to screen for inhibitors and/or agonists of PI3-Ks including but not limited to PI 3-Kinase α, β, δ, and γ. Anr exemplary system is PI3-Kinase (human) HTRF™ Assay from Upstate. […] Briefly, the assay is a time resolved FRET assay that indirectly measures PIP3 product formed by the activity of a PI3-K. The kinase reaction is performed in a microtitre plate (e.g., a 384 well microtitre plate). The total reaction volume is approximately 20 ul per well. In the first step, each well receives 2 ul of test compound in 20% dimethylsulphoxide resulting in a 2% DMSO final concentration. Next, approximately 14.5 ul of a kinase/PIP2 mixture (diluted in 1× reaction buffer) is added per well for a final concentration of 0.25-0.3 ug/ml kinase and 10 uM PIP2. The plate is sealed and incubated for 15 minutes at room temperature. To start the reaction, 3.5 ul of ATP (diluted in 1× reaction buffer) is added per well for a final concentration of 10 uM ATP. The plate is sealed and incubated for 1 hour at room temperature. The reaction is stopped by adding 5 ul of Stop Solution per well and then 5 ul of Detection Mix is added per well. The plate is sealed, incubated for 1 hour at room temperature, and then read on an appropriate plate reader. Data is analyzed and IC50s are generated using GraphPad Prism 5.

[2] = biological target: p110α/p85α (Homo sapiens (Human), UniProt P42336); assay: PI3K α inhibition assay (TLC lipid kinase or HTRF)
Experimental: as §1, §2

[3] = biological target: p110γ (Homo sapiens (Human), UniProt P48736); assay: PI3K γ inhibition assay (TLC lipid kinase or HTRF)
Experimental: as §1, §2

[4] = biological target: p110β/p85α (Homo sapiens, UniProt P42338); assay: PI3K β inhibition assay (TLC lipid kinase or HTRF)
Experimental: as §1, §2

Chain of p110α/p85α (P42336 whole entry): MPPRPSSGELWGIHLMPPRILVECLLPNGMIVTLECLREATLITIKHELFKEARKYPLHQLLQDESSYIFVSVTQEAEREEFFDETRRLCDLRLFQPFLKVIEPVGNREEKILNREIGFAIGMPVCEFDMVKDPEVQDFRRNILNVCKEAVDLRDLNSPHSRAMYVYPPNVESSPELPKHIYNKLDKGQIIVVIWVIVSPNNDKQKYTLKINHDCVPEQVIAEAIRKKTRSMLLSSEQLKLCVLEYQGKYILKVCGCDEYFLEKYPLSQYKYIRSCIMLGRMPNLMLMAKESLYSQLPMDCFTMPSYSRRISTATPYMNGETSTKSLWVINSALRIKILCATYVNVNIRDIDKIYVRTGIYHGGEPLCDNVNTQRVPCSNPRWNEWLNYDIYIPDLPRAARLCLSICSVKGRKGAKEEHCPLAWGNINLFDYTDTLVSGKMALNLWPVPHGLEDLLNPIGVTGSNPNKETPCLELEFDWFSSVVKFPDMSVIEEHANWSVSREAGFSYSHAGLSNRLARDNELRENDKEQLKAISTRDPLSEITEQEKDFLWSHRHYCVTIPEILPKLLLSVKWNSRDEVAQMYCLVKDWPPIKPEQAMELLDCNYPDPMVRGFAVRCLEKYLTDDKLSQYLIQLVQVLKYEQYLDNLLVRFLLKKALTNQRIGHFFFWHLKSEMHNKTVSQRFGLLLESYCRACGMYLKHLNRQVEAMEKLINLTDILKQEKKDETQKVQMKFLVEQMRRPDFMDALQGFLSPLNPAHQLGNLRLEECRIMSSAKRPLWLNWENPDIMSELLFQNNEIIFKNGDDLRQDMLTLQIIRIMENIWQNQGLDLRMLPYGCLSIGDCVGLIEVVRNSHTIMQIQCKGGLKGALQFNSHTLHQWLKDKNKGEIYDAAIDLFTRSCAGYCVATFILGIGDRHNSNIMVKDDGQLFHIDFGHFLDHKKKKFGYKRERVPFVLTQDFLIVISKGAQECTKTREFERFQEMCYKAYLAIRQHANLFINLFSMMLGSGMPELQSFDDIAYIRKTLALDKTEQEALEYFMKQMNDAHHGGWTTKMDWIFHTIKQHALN
Chain of p110α/p85α (P27986 whole entry partner): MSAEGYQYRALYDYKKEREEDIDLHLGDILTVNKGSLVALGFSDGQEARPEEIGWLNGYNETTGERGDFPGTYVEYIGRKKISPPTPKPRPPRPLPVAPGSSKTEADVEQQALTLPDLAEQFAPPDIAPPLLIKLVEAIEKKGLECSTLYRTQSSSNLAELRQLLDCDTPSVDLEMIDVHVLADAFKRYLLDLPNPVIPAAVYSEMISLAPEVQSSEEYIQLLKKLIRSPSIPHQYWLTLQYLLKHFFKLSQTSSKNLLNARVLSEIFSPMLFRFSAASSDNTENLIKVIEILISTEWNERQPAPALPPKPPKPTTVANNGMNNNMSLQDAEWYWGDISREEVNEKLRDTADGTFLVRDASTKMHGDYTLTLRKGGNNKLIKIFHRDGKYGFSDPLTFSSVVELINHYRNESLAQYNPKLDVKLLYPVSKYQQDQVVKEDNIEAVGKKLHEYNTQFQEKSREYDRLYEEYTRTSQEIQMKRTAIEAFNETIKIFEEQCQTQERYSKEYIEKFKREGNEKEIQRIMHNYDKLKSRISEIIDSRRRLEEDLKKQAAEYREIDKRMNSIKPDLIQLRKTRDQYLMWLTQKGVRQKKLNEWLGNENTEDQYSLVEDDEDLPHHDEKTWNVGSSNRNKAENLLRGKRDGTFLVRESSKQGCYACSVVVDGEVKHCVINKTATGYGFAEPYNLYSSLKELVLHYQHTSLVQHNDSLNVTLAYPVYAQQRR
Chain of p110γ (P48736 whole entry): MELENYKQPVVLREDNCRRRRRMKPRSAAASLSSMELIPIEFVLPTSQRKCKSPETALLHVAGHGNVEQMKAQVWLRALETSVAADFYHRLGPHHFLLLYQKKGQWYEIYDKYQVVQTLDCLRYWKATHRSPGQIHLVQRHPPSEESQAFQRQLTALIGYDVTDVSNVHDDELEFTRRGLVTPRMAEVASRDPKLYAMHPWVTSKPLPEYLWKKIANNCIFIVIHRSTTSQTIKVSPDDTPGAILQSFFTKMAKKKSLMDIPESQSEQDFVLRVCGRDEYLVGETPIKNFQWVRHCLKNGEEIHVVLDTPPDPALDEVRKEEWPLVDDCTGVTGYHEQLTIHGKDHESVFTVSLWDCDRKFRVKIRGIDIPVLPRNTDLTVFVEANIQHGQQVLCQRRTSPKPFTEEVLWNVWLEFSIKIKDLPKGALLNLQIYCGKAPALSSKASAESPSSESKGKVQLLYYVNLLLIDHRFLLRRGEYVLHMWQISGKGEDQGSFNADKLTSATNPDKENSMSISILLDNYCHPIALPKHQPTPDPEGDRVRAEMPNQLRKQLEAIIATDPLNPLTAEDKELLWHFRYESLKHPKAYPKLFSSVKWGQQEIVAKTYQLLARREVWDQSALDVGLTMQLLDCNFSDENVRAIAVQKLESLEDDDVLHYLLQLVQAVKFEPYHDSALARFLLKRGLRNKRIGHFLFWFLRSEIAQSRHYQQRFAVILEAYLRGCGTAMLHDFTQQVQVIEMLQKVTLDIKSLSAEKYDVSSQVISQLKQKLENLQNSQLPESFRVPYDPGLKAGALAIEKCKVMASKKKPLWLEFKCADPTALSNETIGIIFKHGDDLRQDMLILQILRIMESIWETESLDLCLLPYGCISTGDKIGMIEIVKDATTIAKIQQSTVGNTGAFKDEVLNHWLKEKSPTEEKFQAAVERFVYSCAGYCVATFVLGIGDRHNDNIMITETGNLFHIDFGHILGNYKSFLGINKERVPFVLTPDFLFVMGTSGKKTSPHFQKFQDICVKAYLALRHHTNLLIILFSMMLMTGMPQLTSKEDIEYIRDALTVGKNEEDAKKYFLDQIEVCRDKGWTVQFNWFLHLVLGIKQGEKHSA
Chain of p110β/p85α (P42338 whole entry, looked up): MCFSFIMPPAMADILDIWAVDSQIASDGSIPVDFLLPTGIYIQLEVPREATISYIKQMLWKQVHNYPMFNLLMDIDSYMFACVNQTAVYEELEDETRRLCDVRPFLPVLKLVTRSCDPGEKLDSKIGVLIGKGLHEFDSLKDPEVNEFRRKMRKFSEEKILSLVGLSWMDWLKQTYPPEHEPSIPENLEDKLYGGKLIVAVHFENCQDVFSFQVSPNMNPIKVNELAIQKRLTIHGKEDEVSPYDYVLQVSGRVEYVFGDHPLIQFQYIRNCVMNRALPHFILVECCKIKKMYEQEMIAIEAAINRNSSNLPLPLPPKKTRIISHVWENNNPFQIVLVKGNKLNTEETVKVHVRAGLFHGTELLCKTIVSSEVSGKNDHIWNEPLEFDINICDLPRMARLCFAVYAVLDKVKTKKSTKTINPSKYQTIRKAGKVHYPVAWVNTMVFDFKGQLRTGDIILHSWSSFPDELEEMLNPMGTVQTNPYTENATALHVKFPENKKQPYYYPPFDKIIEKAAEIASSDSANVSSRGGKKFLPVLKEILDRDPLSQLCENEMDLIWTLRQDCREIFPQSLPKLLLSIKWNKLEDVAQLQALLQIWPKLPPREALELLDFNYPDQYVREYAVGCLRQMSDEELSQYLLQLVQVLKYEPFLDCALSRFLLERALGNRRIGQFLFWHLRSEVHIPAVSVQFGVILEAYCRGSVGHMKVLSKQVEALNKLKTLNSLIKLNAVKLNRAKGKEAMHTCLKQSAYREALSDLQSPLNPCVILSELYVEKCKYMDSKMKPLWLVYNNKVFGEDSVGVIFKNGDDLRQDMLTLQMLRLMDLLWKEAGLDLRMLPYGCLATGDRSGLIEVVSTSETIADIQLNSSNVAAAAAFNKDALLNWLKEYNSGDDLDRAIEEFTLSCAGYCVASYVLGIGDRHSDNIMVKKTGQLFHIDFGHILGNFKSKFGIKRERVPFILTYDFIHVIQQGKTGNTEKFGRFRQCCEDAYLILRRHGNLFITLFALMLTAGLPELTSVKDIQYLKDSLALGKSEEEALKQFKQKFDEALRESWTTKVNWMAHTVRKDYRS
Chain of p110δ/p85α (O00329 whole entry): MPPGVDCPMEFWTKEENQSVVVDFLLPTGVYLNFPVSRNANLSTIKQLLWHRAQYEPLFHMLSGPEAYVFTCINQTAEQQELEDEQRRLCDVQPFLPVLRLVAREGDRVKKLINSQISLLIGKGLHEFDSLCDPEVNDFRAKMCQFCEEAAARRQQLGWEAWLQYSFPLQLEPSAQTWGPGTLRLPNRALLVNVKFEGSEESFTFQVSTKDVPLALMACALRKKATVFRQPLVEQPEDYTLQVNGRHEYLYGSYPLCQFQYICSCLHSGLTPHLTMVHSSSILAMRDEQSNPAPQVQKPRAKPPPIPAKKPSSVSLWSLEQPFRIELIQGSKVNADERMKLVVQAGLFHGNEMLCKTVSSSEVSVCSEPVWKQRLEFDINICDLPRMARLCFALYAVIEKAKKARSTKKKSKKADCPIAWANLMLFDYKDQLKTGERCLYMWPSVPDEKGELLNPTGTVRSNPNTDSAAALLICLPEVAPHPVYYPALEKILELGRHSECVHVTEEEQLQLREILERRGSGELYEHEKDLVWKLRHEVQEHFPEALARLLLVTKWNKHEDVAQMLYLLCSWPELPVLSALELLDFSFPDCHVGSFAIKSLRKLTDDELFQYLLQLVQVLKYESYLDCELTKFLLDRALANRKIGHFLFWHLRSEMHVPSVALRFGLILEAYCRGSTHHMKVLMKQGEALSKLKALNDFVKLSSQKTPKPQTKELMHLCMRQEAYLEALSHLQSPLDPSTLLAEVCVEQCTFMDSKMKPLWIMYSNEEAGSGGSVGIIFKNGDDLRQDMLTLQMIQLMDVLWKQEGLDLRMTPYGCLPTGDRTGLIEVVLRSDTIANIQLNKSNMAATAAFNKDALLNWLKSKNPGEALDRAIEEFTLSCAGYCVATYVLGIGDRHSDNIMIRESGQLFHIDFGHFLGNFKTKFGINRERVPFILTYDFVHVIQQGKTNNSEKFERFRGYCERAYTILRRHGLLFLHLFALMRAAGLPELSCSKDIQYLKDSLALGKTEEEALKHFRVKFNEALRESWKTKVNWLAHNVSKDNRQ
Chain of p110δ/p85α (P27986 whole entry partner): as the sequence (P27986 whole entry partner) above

SMILES	IC50 [1]	IC50 [2]	IC50 [3]	IC50 ([4]; read-out: PI3K β IC50)	IC50 ([4]; PI3K β IC50)
COc1ccccc1-c1nc2ccccc2cc1Cn1nc(-c2cccc(O)c2)c2c(N)ncnc21 [Compound 14]	0.1 to 1 µM	–	–	–	–
COc1ccccc1-c1nc2ccccc2cc1Cn1nc(C#C[C@@H](C)O)c2c(N)ncnc21 [Compound 18]	> 1 µM	–	–	–	–
Nc1ncnc2c1c(-c1ccccc1O)nn2Cc1cc2ccccc2nc1N1CCCC1 [Compound 21]	> 1 µM	–	–	–	–
Nc1ncnc2c1c(-c1cc(F)ccc1O)nn2Cc1cc2ccccc2nc1N1CCCC1 [Compound 22]	> 1 µM	–	–	–	–
CC(=O)Nc1nc2ccc(-c3nn(Cc4cc5ccccc5nc4N4CCCC4)c4ncnc(N)c34)cc2s1 [Compound 24]	–	0.1 to 1 µM	–	–	–
CC(=O)Nc1cccc(-c2nn(Cc3cc4ccccc4nc3N3CCCC3)c3ncnc(N)c23)c1 [Compound 27]	> 1 µM	–	–	–	–
NC(=O)c1cccc(-c2nn(Cc3cc4ccccc4nc3N3CCCC3)c3ncnc(N)c23)c1 [Compound 28]	> 1 µM	–	–	–	–
Nc1ncnc2c1c(-c1cc(O)cc(F)c1)nn2Cc1cc2ccccc2nc1NC1CC1 [Compound 29]	0.1 to 1 µM	> 1 µM	> 1 µM	> 1 µM	–
Nc1ncnc2c1c(-c1cc(O)cc(F)c1)nn2Cc1cc2ccccc2nc1NC1CCCC1 [Compound 33]	0.1 to 1 µM	–	–	–	–
CC(c1cc2ccccc2nc1N1CCCC1)n1cnc2c(N)ncnc21 (stereo not drawn) [Compound 35]	> 1 µM	–	> 1 µM	–	–
CCC(c1cc2ccccc2nc1N1CCCC1)n1cnc2c(N)ncnc21 (stereo not drawn) [Compound 36]	> 1 µM	–	> 1 µM	–	–
CCC(c1cc2ccccc2nc1-c1ccccc1)n1cnc2c(N)ncnc21 (stereo not drawn) [Compound 37]	> 1 µM	–	> 1 µM	–	–
C[C@@H](O)C#Cc1nn(Cc2cc3ccccc3nc2N2CCCC2)c2ncnc(N)c12 [Compound 41]	< 0.1 µM	–	–	–	–
CN1CCN(c2nc3ccccc3cc2Cn2nc(I)c3c(N)ncnc32)CC1 [Compound 44]	0.1 to 1 µM	–	> 1 µM	–	–
C[C@@H](O)C#Cc1nn(Cc2cc3ccccc3nc2N2CCN(C)CC2)c2ncnc(N)c12 [Compound 51]	> 1 µM	–	–	–	–
CCC(Nc1ncnc2[nH]cnc12)c1cc2ccccc2nc1N1CCCC1 (stereo not drawn) [Compound 53]	0.1 to 1 µM	–	> 1 µM	–	–
Nc1ncnc2c1c(-c1cccc3[nH]ncc13)nn2Cc1cc2ccccc2nc1N1CCCC1 [Compound 58]	0.1 to 1 µM	–	0.1 to 1 µM	–	–
Nc1ncnc2c1c(-c1cccnc1)nn2Cc1cc2ccccc2nc1N1CCCC1 [Compound 62]	0.1 to 1 µM	–	0.1 to 1 µM	–	–
Cc1cccc2cc(Cn3nc(-c4cc(O)cc(F)c4)c4c(N)ncnc43)c(N3CCOCC3)nc12 [Compound 65]	< 0.1 µM	0.1 to 1 µM	< 0.1 µM	0.1 to 1 µM	–
Cc1cccc2cc(Cn3nc(-c4cccc(O)c4)c4c(N)ncnc43)c(N3CCOCC3)nc12 [Compound 66]	< 0.1 µM	> 1 µM	< 0.1 µM	0.1 to 1 µM	–
CN1CCN(c2nc3ccccc3cc2Cn2cnc3c(N)ncnc32)CC1 [Compound 67]	> 1 µM	> 1 µM	> 1 µM	–	> 1 µM
CNc1ncnc2c1c(-c1cc(O)cc(F)c1)nn2Cc1cc2ccccc2nc1N(C)CCN1CCOCC1 [Compound 76]	> 1 µM	> 1 µM	> 1 µM	> 1 µM	–
CN1CCN(c2nc3ccccc3cc2CNc2ncnc3[nH]cnc23)CC1 [Compound 87]	> 1 µM	> 1 µM	> 1 µM	> 1 µM	–
CC(Nc1ncnc2[nH]cnc12)c1cc2ccccc2nc1N1CCCC1 (stereo not drawn) [Compound 88]	0.1 to 1 µM	> 1 µM	> 1 µM	> 1 µM	–
CC(c1cc2ccccc2nc1N1CCN(C)CC1)n1cnc2c(N)ncnc21 (stereo not drawn) [Compound 89]	0.1 to 1 µM	> 1 µM	> 1 µM	> 1 µM	–
CCC(c1cc2ccccc2nc1N1CCN(C)CC1)n1cnc2c(N)ncnc21 (stereo not drawn) [Compound 90]	0.1 to 1 µM	> 1 µM	> 1 µM	> 1 µM	–

SMILES	IC50 [1]	IC50 [2]	IC50 [3]	IC50 ([4]; read-out: PI3K β IC50)	IC50 ([4]; PI3K β IC50)
Nc1ncnc2c1c(-c1cccc(O)c1)nn2Cc1cc2ccccc2nc1-c1ccccc1F [Compound 91]	0.1 to 1 µM	> 1 µM	0.1 to 1 µM	> 1 µM	–
Nc1ncnc2c1c(I)nn2Cc1cc2c(nc1-c1ccccc1F)CCC2 [Compound 100]	> 1 µM	–	–	–	–
Nc1ncnc2c1c(-c1cccc(O)c1)nn2Cc1cc2c(nc1-c1ccccc1F)CCC2 [Compound 102]	> 1 µM	–	–	–	–
C[C@@H](O)C#Cc1nc2ccccc2nc1Cn1nc(C#C[C@@H](C)O)c2c(N)ncnc21 [Compound 103]	> 1 µM	–	> 1 µM	–	–
C[C@@H](O)C#Cc1nn(Cc2nc3ccccc3nc2N2CCCC2)c2ncnc(N)c12 [Compound 106]	0.1 to 1 µM	–	> 1 µM	–	–
Cc1ccccc1-c1ncccc1Cn1nc(-c2cccc(O)c2)c2c(N)ncnc21 [Compound 120]	> 1 µM	–	–	–	–
Cc1ccccc1-c1ncccc1Cn1nc(-c2cc(O)cc(F)c2)c2c(N)ncnc21 [Compound 121]	> 1 µM	–	–	–	–
CN(C)c1ncccc1Cn1nc(-c2cccc(O)c2)c2c(N)ncnc21 [Compound 122]	> 1 µM	–	–	–	–
Nc1ncnc2c1c(-c1cccc(O)c1)nn2Cc1cccnc1N1CCCC1 [Compound 123]	> 1 µM	–	–	–	–
Nc1ncnc2c1c(-c1cc(O)cc(F)c1)nn2Cc1cccnc1N1CCCC1 [Compound 124]	> 1 µM	–	–	–	–
CN(C)c1ncccc1Cn1nc(-c2cc(O)cc(F)c2)c2c(N)ncnc21 [Compound 125]	> 1 µM	–	–	–	–
Nc1ncnc2c1c(-c1cc(O)cc(F)c1)nn2CCn1c(-c2ccccc2)nc2ccccc21 [Compound 126]	> 1 µM	–	–	–	–
Nc1ncnc2c1c(-c1cc(O)cc(F)c1)nn2Cc1cc2ccccc2nc1-c1ccccc1 [Compound 149]	–	–	–	> 1 µM	–
Nc1ncc(-c2nn(Cc3cc4ccccc4nc3-c3ccccc3)c3nccc(N)c23)cn1 [Compound 160]	0.1 to 1 µM	> 1 µM	–	> 1 µM	–
Nc1ncnc2c1c(-c1ccc(O)nc1)nn2Cc1cc2ccccc2nc1-c1ccccc1F [Compound 161]	–	> 1 µM	–	> 1 µM	–
NC1=NC=NC2C1C(c1ccc(O)nc1)=NN2Cc1cc2ccccc2nc1-c1ccccc1 (stereo not drawn) [Compound 162]	–	> 1 µM	–	> 1 µM	–
CC(=O)Nc1nc2ccc(-c3nn(Cc4cc5ccccc5nc4N4CCN(C(C)C)CC4)c4ncnc(N)c34)cc2s1 [Compound 163]	–	0.1 to 1 µM	–	< 0.1 µM	–
CC(C)N1CCN(c2nc3ccccc3cc2Cn2nc(-c3ccc4nc(N)sc4c3)c3c(N)ncnc32)CC1 [Compound 164]	–	< 0.1 µM	–	< 0.1 µM	–
Nc1cc(-c2nn(Cc3cc4ccccc4nc3-c3ccccc3F)c3ncnc(N)c23)ccn1 [Compound 172]	> 1 µM	> 1 µM	–	> 1 µM	–
Nc1cc(-c2nn(Cc3cc4ccccc4nc3-c3ccccc3)c3ncnc(N)c23)ccn1 [Compound 173]	> 1 µM	> 1 µM	–	> 1 µM	–
Nc1ncnc2c1c(-c1ccnc(O)c1)nn2Cc1cc2ccccc2nc1-c1ccccc1F [Compound 177]	> 1 µM	> 1 µM	–	> 1 µM	–
Nc1ncnc2c1c(-c1ccnc(O)c1)nn2Cc1cc2ccccc2nc1-c1ccccc1 [Compound 178]	> 1 µM	> 1 µM	–	> 1 µM	–
CC(=O)Nc1nc2ccc(-c3nn(Cc4cc5ccccc5nc4-c4ccccc4F)c4ncnc(N)c34)cc2[nH]1 [Compound 183]	0.1 to 1 µM	> 1 µM	0.1 to 1 µM	–	–
CC1CCCN1c1nc2ccccc2cc1Cn1ncc2c(N)ncnc21 (stereo not drawn) [Compound 188]	> 1 µM	> 1 µM	–	> 1 µM	–
N#Cc1nn(Cc2cc3ccccc3nc2-c2ccccc2F)c2ncnc(N)c12 [Compound 189]	> 1 µM	> 1 µM	–	> 1 µM	–
CN1CCN(c2nc3ccccc3cc2Cn2nc(-c3cc(O)cc(F)c3)c3c(N)ncnc32)CC1 [Compound 197]	–	–	–	0.1 to 1 µM	–
